Test results reported in patent US20030235904A1, “Bacterial parts washer, composition and method of use” (Osprey Biotechnics, Inc., priority 2002, published 2003).

Columns and labels:
[1] = tested on: Pseudomonas putida NRRL-B-18118; assay: Oxygen uptake (BOD analyzer) with NEODOL 91-6 and 1% motor oil; type: cell-based; parameters: oxygen uptake: unit not given here; settings: for oxygen uptake: 25° C.
Description: The assay measured oxygen uptake of Pseudomonas putida NRRL-B-18118 in the presence 0.001 to 1.0% NEODOL 91-6 and 1% motor oil in a minimal media broth. The pseudomonads were suspended at 10^8 CFU/mL and placed in a HATCH Model 2173B biological oxygen demand (BOD) analyzer at 25° C. […] was measured over a 48 hour time period.

[2] = tested on: Pseudomonas putida NRRL-B-18118; assay: Shelf-life of the pseudomonad stored with NEODOL 91-6 (plate counts); type: cell-based
Description: The Pseudomonas putida NRRL-B-18118 was stabilized in a liquid according to the method described in U.S. Pat. No. 5,980,747 to Vandenbergh. Briefly, sodium nitrate was mixed with water in an amount of 0.26 gm per 100 gm (mL) of water. This produced a 0.26% solution by weight. To this solution, Pseudomonas putida NRRL-B-18118 was added in an amount to provide a final concentration of 1.4×10^8 CFU/mL of the pseudomonad and a final concentration of nitrate of 0.13%. Optionally, a buffering amount of monoammonium phosphate was added at a ratio between about 1:1 to 125:1 sodium nitrate to monoammonium phosphate to enhance the preservation of the pseudomonad at 25° C.
Pseudomonas putida NRRL-B-18118 was stabilized in a liquid according as described in Example 1. The stabilized pseudomonads were then mixed with the ethoxylated surfactant NEODOL 91-6 at the appropriate amount to arrive at the appropriate fixed concentration. The solutions were incubated at 25° C. At various times, aliquots were removed and plated on agar plates and the colony forming units (CFU) per mL were recorded.

(C9-C11) alkyl alcohol ethoxylate (polyethyleneglycol-(C9-C11)-ether) [NEODOL 91-6]
oxygen uptake ([1]; 0.001% NEODOL 91-6, 1% motor oil, 0 h): 0 | oxygen uptake ([1]; 0.001% NEODOL 91-6, 1% motor oil, 12 h): 40 | oxygen uptake ([1]; 0.001% NEODOL 91-6, 1% motor oil, 21 h): 100 | oxygen uptake ([1]; 0.001% NEODOL 91-6, 1% motor oil, 28 h): 140 | oxygen uptake ([1]; 0.001% NEODOL 91-6, 1% motor oil, 31 h): 160 | oxygen uptake ([1]; 0.001% NEODOL 91-6, 1% motor oil, 48 h): 200 | oxygen uptake ([1]; 0.01% NEODOL 91-6, 1% motor oil, 0 h): 0 | oxygen uptake ([1]; 0.01% NEODOL 91-6, 1% motor oil, 12 h): 40 | oxygen uptake ([1]; 0.01% NEODOL 91-6, 1% motor oil, 21 h): 40 | oxygen uptake ([1]; 0.01% NEODOL 91-6, 1% motor oil, 28 h): 60 | oxygen uptake ([1]; 0.01% NEODOL 91-6, 1% motor oil, 31 h): 60 | oxygen uptake ([1]; 0.01% NEODOL 91-6, 1% motor oil, 48 h): 110 | oxygen uptake ([1]; 0.1% NEODOL 91-6, 1% motor oil, 0 h): 0 | oxygen uptake ([1]; 0.1% NEODOL 91-6, 1% motor oil, 12 h): 20 | oxygen uptake ([1]; 0.1% NEODOL 91-6, 1% motor oil, 21 h): 40 | oxygen uptake ([1]; 0.1% NEODOL 91-6, 1% motor oil, 28 h): 60 | oxygen uptake ([1]; 0.1% NEODOL 91-6, 1% motor oil, 31 h): 80 | oxygen uptake ([1]; 0.1% NEODOL 91-6, 1% motor oil, 48 h): 110 | oxygen uptake ([1]; 0.5% NEODOL 91-6, 1% motor oil, 0 h): 0 | oxygen uptake ([1]; 0.5% NEODOL 91-6, 1% motor oil, 12 h): 20 | oxygen uptake ([1]; 0.5% NEODOL 91-6, 1% motor oil, 21 h): 40 | oxygen uptake ([1]; 0.5% NEODOL 91-6, 1% motor oil, 28 h): 50 | oxygen uptake ([1]; 0.5% NEODOL 91-6, 1% motor oil, 31 h): 70 | oxygen uptake ([1]; 0.5% NEODOL 91-6, 1% motor oil, 48 h): 90 | oxygen uptake ([1]; 1.0% NEODOL 91-6, 1% motor oil, 0 h): 0 | oxygen uptake ([1]; 1.0% NEODOL 91-6, 1% motor oil, 12 h): 10 | oxygen uptake ([1]; 1.0% NEODOL 91-6, 1% motor oil, 21 h): 20 | oxygen uptake ([1]; 1.0% NEODOL 91-6, 1% motor oil, 28 h): 30 | oxygen uptake ([1]; 1.0% NEODOL 91-6, 1% motor oil, 31 h): 50 | oxygen uptake ([1]; 1.0% NEODOL 91-6, 1% motor oil, 48 h): 80 | function of the pseudomonads in the presence of NEODOL 91-6 ([1]; tested NEODOL 91-6 concentrations, 48 hour time period): remained functional | CFU/mL (time) ([2]; 0.5% NEODOL 91-6, 25° C., 1 Month): 5.0 × 10^7 CFU/mL | CFU/mL (time) ([2]; 0.5% NEODOL 91-6, 25° C., 3 Months): 1.0 × 10^7 CFU/mL | CFU/mL (time) ([2]; 0.5% NEODOL 91-6, 25° C., 5 Months): 3.0 × 10^7 CFU/mL | CFU/mL (time) ([2]; 0.5% NEODOL 91-6, 25° C., 7 Months): 6.0 × 10^6 CFU/mL | CFU/mL (time) ([2]; 0.5% NEODOL 91-6, 25° C., Zero (h)): 1.4 × 10^8 CFU/mL | CFU/mL (time) ([2]; 1.0% NEODOL 91-6, 25° C., 1 Month): 5.0 × 10^7 CFU/mL | CFU/mL (time) ([2]; 1.0% NEODOL 91-6, 25° C., 3 Months): 1.5 × 10^7 CFU/mL | CFU/mL (time) ([2]; 1.0% NEODOL 91-6, 25° C., 5 Months): 1.0 × 10^7 CFU/mL | CFU/mL (time) ([2]; 1.0% NEODOL 91-6, 25° C., 7 Months): 1.0 × 10^6 CFU/mL | CFU/mL (time) ([2]; 1.0% NEODOL 91-6, 25° C., Zero (h)): 1.4 × 10^8 CFU/mL | CFU/mL (time) ([2]; 5.0% NEODOL 91-6, 25° C., 1 Month): 5.0 × 10^7 CFU/mL | CFU/mL (time) ([2]; 5.0% NEODOL 91-6, 25° C., 3 Months): 1.4 × 10^7 CFU/mL | CFU/mL (time) ([2]; 5.0% NEODOL 91-6, 25° C., 5 Months): 1.0 × 10^7 CFU/mL | CFU/mL (time) ([2]; 5.0% NEODOL 91-6, 25° C., 7 Months): 1.0 × 10^6 CFU/mL | CFU/mL (time) ([2]; 5.0% NEODOL 91-6, 25° C., Zero (h)): 1.4 × 10^8 CFU/mL | effect on shelf-life of Pseudomonas putida NRRL-B-18118 ([2]; NEODOL 91-6 0.5 to 5% in the storage solution): not adversely affected | decrease in viability of the pseudomonads ([2]; stored in the presence of NEODOL 91-6, over seven months): two log decrease
